Measured values taken from patent US20110217290A1, “TREATMENT AND/OR PREVENTION OF PEANUT INDUCED ANAPHYLAXIS” (priority 2009, published 2011).

How the values were obtained:
[1] = test system: peanut-sensitized mice
[2] = test system: albumin in the PL fluid; experiment: Vascular leakage: albumin content in PL fluid after peanut challenge; assay type: in vivo, C57BL/6 mice; conditions: PAF-R antagonist; following peanut challenge
From the text: During the course of a systemic anaphylactic reaction vasodilatation and hypotension are often associated with excessive vascular permeability and fluid extravasations.

[3] = test system: cysteinyl leukotrienes (CysLTC); experiment: Plasma cysteinyl leukotrienes after peanut challenge (enzyme immunoassay); assay type: in vivo, C57BL/6 mice
Method: Blood from control and sensitized mice was collected in K2-EDTA containing tubes at the indicated time points following i.p challenge with CPE and plasma was analyzed for (E) histamine and (F) CysLTC levels. Histamine and leukotriene levels were determined in plasma at different time points following challenge using enzyme immunoassay kits (Beckman Coulter Canada, Inc, Mississauga, and Cedarlane Laboratories Ltd, Hornby, Canada, respectively) according to the manufacture's specifications. Plasma was obtained using K2-EDTA containing tubes (BD Biosciences, Mississauga, ON, Canada). Graphs show mean values±SEM from three to five independent experiments; n=8-12 mice per group. * P<0.05 relative to control. The kinetics of mediator production is distinct. […] These findings indicate that oral sensitization with peanut results in a significant increase in the number of peritoneal mast cells and FcεRI surface expression likely contributing to the massive release of vasoactive mediators following challenge with peanut.
(for H1 receptor and H2 receptor, respectively) i.v. 30 minutes prior to CPE challenge. […] Histamine (C) and (G) and leukotriene (D) and (H) levels from each of the experimental groups above were analyzed in plasma 40 min following CPE challenge. […]

[4] = test system: peanut-sensitized mice; experiment: Mathematical model grading severity of the anaphylactic response (AU39° C., AU35° C., events under 35° C.); assay type: in vivo, C57BL/6 mice
Method: In an effort to more comprehensively grade the anaphylactic response, three measures of severitywere utilized: global, moderate and life-threatening severity. To facilitate the assessment of severity, a mathematical model that describes the overall behavior of the anaphylactic response for each experimental group was developed. Using mean experimental data for untreated mice, an equation was derived that represents the pattern in core temperature up to 120 minutes following challenge. The same equation was then fit to the other experimental group (mice treated with PAF-R antagonist) to derive a numerical coefficient that accurately depicts the respective response. (FIG. 3 E). These equations were subsequently used to generate modeled data. Actual and modeled data were validated through linear regression, yielding R^2 values of greater than 0.99 for both untreated and treated groups (FIG. 3 F). Thus, the response for each experimental group can be expressed with a mathematical representation that can be used to assess the overall degree of the anaphylactic response. Global severity was defined as the area of the response under 39° C. (AU39° C.), while life-threatening severity was depicted as the area of the response under 35° C. (AU35° C.; FIG. 3 F). Moderate severity was deemed as the difference between global and life-threatening severity (AU39° C.-AU35° C.; FIG. 3 F). Given that these areas (i.e. AU39° C. and AU35° C.) were calculated using mean temperatures at each time point, they describe the overall trend of the response. […] In other words, the AU35° C. is not representative of those mice that experienced life-threatening anaphylaxis exclusively but rather encompasses the response of the entire population. Therefore, the concept of life-threatening severity was modified to consider only the number of mice whose temperature fell below 35° C. at any time point (expressed as ‘events under 35° C.’). In addition, the duration of life-threatening conditions was determined by calculating the time at which each response was below 35° C. (FIG. 3 F).
The potential adjuvant effect of antihistamines in the treatment of PIA was assessed. Peanut-sensitized mice were treated with a PAF-R antagonist along with H1 and H2 receptor antagonists and monitored them for 120 min following challenge. FIG. 4 illustrates that concomitant treatment with PAF-R antagonist and anti-histamines prevents life-threatening and prolonged peanut-induced anaphylactic reactions. […] One week after the last sensitization, separate groups of mice were treated as follows: (A) appropriate drug vehicle (B) PAF-R antagonist [50 mg/Kg], ABT-491] orally 1 h prior to CPE challenge. (C) histamine receptor antagonists mepyramine [3 mg/kg] and cimetadine [10 mg/Kg] (for H1 receptor and H2 receptor, respectively) i.v. 30 min prior to CPE challenge (D) The last group of mice was administered the treatments described in B and C concurrently. Pooled data from two independent experiments are shown (n=6/experiment). *, P<0.05 relative to time 0. ns, not significant. […] (E) The accuracy of the model was quantified using linear regression. Using the equation from the model, global severity was defined as the area between the response and 39 (area under 39° C. (AU39° C.)) while life-threatening severity was defined as the area of the response under 35° C. (AU35° C.). Since these areas were calculated using mean temperatures at each time point, they describe the overall trend of the response. […]

SMILES | development of seizures (convulsions) ([1]; ABT-491 50 mg/Kg orally 1 h prior to challenge, 15% of untreated mice developed convulsions) | recovery from the anaphylactic reaction ([1]; ABT-491 50 mg/Kg orally 1 h prior to challenge, monitored 120 min, FIGS. 3 C and D) | treated mice that developed either no or mild anaphylactic reactions ([1]; ABT-491 50 mg/Kg orally 1 h prior to challenge, no: score 0, 37.5-40° C., mild: score ≦2, 34.5-37.5° C.) [%] | mice that reached recovery temperature (37° C.) within 120 min following challenge ([1]; ABT-491 50 mg/Kg orally 1 h prior to challenge, untreated 43%, FIG. 3 C) [%] | mice that dropped their core temperature by more than 4° C. ([1]; ABT-491 50 mg/Kg orally 1 h prior to challenge, untreated 87%) [%] | mice that died within 48 h following challenge ([1]; ABT-491 50 mg/Kg orally 1 h prior to challenge, untreated approximately 20%) | mice that experienced severe hypothermia 120 min following challenge ([1]; ABT-491 50 mg/Kg orally 1 h prior to challenge, untreated approximately 30%) [%] | decrease in the content of albumin in the PL fluid of treated mice compared to untreated mice (vascular leakage) [2] [%] | levels of Cysts in plasma following challenge with peanut ([3]; PAF-R antagonist treated, untreated 570.2±237.3, mean±SEM) [pg/mL] | decrease in global severity (AU39° C.) ([4]; PAF-R antagonist 50 mg/Kg orally vs. untreated, up to 120 min following challenge, FIG. 3 F) | less time under life-threatening conditions (below 35° C.) compared to untreated mice ([4]; PAF-R antagonist 50 mg/Kg orally, FIG. 3 F) | number of 'events under 35° C.' ([4]; PAF-R antagonist 50 mg/Kg orally, untreated 133, FIG. 3 F) | number of 'events under 35° C.' ([4]; treatments as, 120 min, untreated 75, FIG. 4 E) | effect on moderate severity (AU39° C.-AU35° C.) ([4]; treatments as, up to 120 min, FIG. 4 E) | impact on the extent and/or kinetics of peanut-induced anaphylactic reactions ([1]; Zileuton 50 mg/Kg oral gavage twice, 12 h and 1 h prior to i.p. CPE challenge, 40 min, FIGS. 2 A and B) | leukotrienes in plasma from treated mice ([3]; Zileuton 50 mg/Kg oral, 12 h and 1 h prior to challenge, plasma 40 min following CPE challenge, FIG. 2 D)
C#Cc1cccc2c1c(C(=O)c1ccc(Cn3c(C)nc4cnccc43)c(F)c1)cn2C(=O)N(C)C [ABT-491] | no seizures were observed | significantly accelerated | ~50 | 83 | 48 | none | 9 | 57 | 187.3 ± 96.9 | approximately 50% | approximately 75% | 41 | 16 | partial effect |  | 
CC(c1cc2ccccc2s1)N(O)C(N)=O (stereo not shown) [Zileuton] |  |  |  |  |  |  |  |  |  |  |  |  |  |  | did not have an impact | nearly undetected
